Test results taken from ChEMBL document CHEMBL3832032, “DailyMed|setid=2238e083-08f2-0aa8-59b7-16b6d68dbd48 | ALPRAZOLAM - alprazolam tablet|Apotex Corp”.

Legend:
Assay type in all cases: ADME, organism-based
Homo sapiens [1] = assay: Evaluation of pharmacokinetic parameters for Alprazolam following single oral administration of Alprazolam, and following co-administration with multiple doses of carbamazepine.; details: in vivo, dose 0.8 mg, dosed compound id 23, dosed compound name ALPRAZOLAM, regimen Single dose, tissue Plasma
Homo sapiens [2] = assay: (§1) Pharmacokinetic parameters for Alprazolam evaluated after oral administration of alprazolam to subjects of different ages and health conditions.; parameters: route oral, dose Range 0.5 to 3; details: in vivo, po, dosed compound id 23, dosed compound name ALPRAZOLAM, gender male and female, tissue Plasma
[3] = as §1; parameters: route oral, dose Range 0.5 to 3; details: human, in vivo, dosed compound id 23, dosed compound name ALPRAZOLAM, gender male and female, tissue Plasma
[4] = interact cpd dose 300 mg, inter cpd dos duration 10 days

Molecule `Cc1nnc2n1-c1ccc(Cl)cc1C(c1ccccc1)=NC2` [ALPRAZOLAM] has a CL (Homo sapiens [1]; [4]) of 2.13 mL/min/kg, a t1/2 (Homo sapiens [1]; [4]) of 7.7 h and a CL (Homo sapiens [1]) of 0.9 mL/min/kg. For the same molecule, the t1/2 (Homo sapiens [1]) was 17.1 h, the t1/2 (Homo sapiens [2]; dose Range 0.5 to 3 mg) was 11.2 h and the t1/2 (Homo sapiens [2]) was 16.3 hr [middle of 5 runs]. The Cmax ([3]; po) was 8 to 37 ng/mL and the Tmax ([3]; dose Range 0.5 to 3 mg, route oral) was 1 to 2 h.
